From PubChem BioAssay AID2060486 (Molecular Pharmacology Branch, DTP, NCI, 2025)

System: IGROV1 complex spheroids (HUVEC, MSC), viability % test/control
Assay: Anticancer human tumor IGROV1 cell line growth inhibition [GQUAD];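 also: spheroids exposed to compounds for 7 days before readout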;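 as to viability, T/C: 100% = DMSO vehicle control viability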
Conditions: for IC50: curve of first compound; for viability, T/C: stronger effect = lower value
Procedure, shortened: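 Multi-cell-type spheroids of tumor cells with HUVEC and mesenchymal stem cells, treated with drug combinations. Concentrations descend in half-log steps from near clinical Cmax, or from 10 microM where Cmax is unknown; viability read-out.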

[1] = second compound 0.0316 µM, first compound 0.0316 µM
[2] = second compound 0.0316 µM, first compound 0.1 µM
[3] = second compound 0.0316 µM, first compound 0.316 µM
[4] = second compound 0.0316 µM, first compound 1 µM
[5] = second compound 0.0316 µM, first compound 3.16 µM
[6] = second compound 0.0316 µM, first compound 10 µM
[7] = second compound 0.1 µM, first compound 0.0316 µM
[8] = second compound 0.1 µM, first compound 0.1 µM
[9] = second compound 0.1 µM, first compound 0.316 µM
[10] = second compound 0.1 µM, first compound 1 µM
[11] = second compound 0.1 µM, first compound 3.16 µM
[12] = second compound 0.1 µM, first compound 10 µM
[13] = second compound 0.316 µM, first compound 0.0316 µM
[14] = second compound 0.316 µM, first compound 0.1 µM
[15] = second compound 0.316 µM, first compound 0.316 µM
[16] = second compound 0.316 µM, first compound 1 µM
[17] = second compound 0.316 µM, first compound 3.16 µM
[18] = second compound 0.316 µM, first compound 10 µM
[19] = second compound 1 µM, first compound 0.0316 µM
[20] = second compound 1 µM, first compound 0.1 µM
[21] = second compound 1 µM, first compound 0.316 µM
[22] = second compound 1 µM, first compound 1 µM
[23] = second compound 1 µM, first compound 3.16 µM
[24] = second compound 1 µM, first compound 10 µM
[25] = second compound 3.16 µM, first compound 0.0316 µM
[26] = second compound 3.16 µM, first compound 0.1 µM
[27] = second compound 3.16 µM, first compound 0.316 µM
[28] = second compound 3.16 µM, first compound 1 µM
[29] = second compound 3.16 µM, first compound 3.16 µM
[30] = second compound 3.16 µM, first compound 10 µM
[31] = second compound 10 µM, first compound 0.0316 µM
[32] = second compound 10 µM, first compound 0.1 µM
[33] = second compound 10 µM, first compound 0.316 µM
[34] = second compound 10 µM, first compound 1 µM
[35] = second compound 10 µM, first compound 3.16 µM
[36] = second compound 10 µM, first compound 10 µM

With Nc1ccn(C2OC(CO)C(O)C2(F)F)c(=O)n1 (stereo unspecified) + CN(C)c1ccc(Nc2c3ccc(NC(=O)CCN4CCCC4)cc3nc3cc(NC(=O)CCN4CCCC4)ccc23)cc1 the IC50 (second compound 0.0316 µM) was < 31.6 nM, the IC50 (second compound 0.1 µM) was < 31.6 nM and the IC50 (second compound 0.316 µM) was < 31.6 nM. For the same compound, the IC50 (second compound 1 µM) was < 31.6 nM, the IC50 (second compound 3.16 µM) was < 31.6 nM and the IC50 (second compound 10 µM) was < 31.6 nM. The viability, T/C [1] was 11.5%, the viability, T/C [2] was 6.58% and the viability, T/C [3] was 6.05%. The viability, T/C [4] was 6.75%, the viability, T/C [5] was 6.08% and the viability, T/C [6] was 4.2%. For the same compound, the viability, T/C [7] was 12.7%, the viability, T/C [8] was 5.68% and the viability, T/C [9] was 6.81%. It also gave a viability, T/C [10] of 6.8%, a viability, T/C [11] of 5.93% and a viability, T/C [12] of 4.32%. It also gave a viability, T/C [13] of 13.1%, a viability, T/C [14] of 5.27% and a viability, T/C [15] of 6.2%. It also gave a viability, T/C [16] of 6.03%, a viability, T/C [17] of 5.63% and a viability, T/C [18] of 6.07%. For the same compound, the viability, T/C [19] was 11.6%, the viability, T/C [20] was 5.93% and the viability, T/C [21] was 7.47%. For the same compound, the viability, T/C [22] was 6.02%, the viability, T/C [23] was 6.39% and the viability, T/C [24] was 5.81%. For the same compound, the viability, T/C [25] was 10.2%, the viability, T/C [26] was 5.96% and the viability, T/C [27] was 6.33%. For the same compound, the viability, T/C [28] was 5.69%, the viability, T/C [29] was 5.78% and the viability, T/C [30] was 4.9%. For the same compound, the viability, T/C [31] was 6.83%, the viability, T/C [32] was 4.85% and the viability, T/C [33] was 4.16%. It also gave a viability, T/C [34] of 4.94%, a viability, T/C [35] of 4.47% and a viability, T/C [36] of 4.53%.
In the case of CC1COCCN1c1cc(C2(S(C)(=N)=O)CC2)nc(-c2ccnc3[nH]ccc23)n1 (stereo unspecified) + CN(C)c1ccc(Nc2c3ccc(NC(=O)CCN4CCCC4)cc3nc3cc(NC(=O)CCN4CCCC4)ccc23)cc1, the IC50 (second compound 0.0316 µM) is reported as 1020 nM, the IC50 (second compound 0.1 µM) is reported as 949 nM and the IC50 (second compound 0.316 µM) is reported as 979 nM. For the same compound, the IC50 (second compound 1 µM) was 1020 nM, the IC50 (second compound 3.16 µM) was 1030 nM and the IC50 (second compound 10 µM) was 141 nM. The viability, T/C [1] was 83.5%, the viability, T/C [2] was 76.6% and the viability, T/C [3] was 86.7%. The viability, T/C [4] was 49.9%, the viability, T/C [5] was 16.1% and the viability, T/C [6] was 7.65%. It also gave a viability, T/C [7] of 99.2%, a viability, T/C [8] of 89.5% and a viability, T/C [9] of 76.3%. For the same compound, the viability, T/C [10] was 52.7%, the viability, T/C [11] was 14% and the viability, T/C [12] was 5.88%. For the same compound, the viability, T/C [13] was 83.7%, the viability, T/C [14] was 103% and the viability, T/C [15] was 76.8%. For the same compound, the viability, T/C [16] was 51.4%, the viability, T/C [17] was 13.7% and the viability, T/C [18] was 6.28%. For the same compound, the viability, T/C [19] was 72.4%, the viability, T/C [20] was 93% and the viability, T/C [21] was 69.8%. For the same compound, the viability, T/C [22] was 52.5%, the viability, T/C [23] was 12.1% and the viability, T/C [24] was 6.36%. It also gave a viability, T/C [25] of 65.5%, a viability, T/C [26] of 84% and a viability, T/C [27] of 79.7%. The viability, T/C [28] was 49.4%, the viability, T/C [29] was 16.5% and the viability, T/C [30] was 6.55%. For the same compound, the viability, T/C [31] was 60.6%, the viability, T/C [32] was 54.4% and the viability, T/C [33] was 40.4%. The viability, T/C [34] was 30.5%, the viability, T/C [35] was 15.2% and the viability, T/C [36] was 7.14%.
COc1cccc2c1C(=O)c1c(O)c3c(c(O)c1C2=O)CC(O)(C(=O)CO)CC3OC1CC(N)C(O)C(C)O1 (stereo unspecified) + Cc1[nH]c2ccc(F)cc2c1-c1nc2c3cccnc3c3ncccc3c2[nH]1 was tested, and the IC50 (second compound 0.0316 µM) was 58.1 nM, the IC50 (second compound 0.1 µM) was 45.9 nM and the IC50 (second compound 0.316 µM) was < 31.6 nM. The IC50 (second compound 1 µM) was < 31.6 nM, the IC50 (second compound 3.16 µM) was < 31.6 nM and the IC50 (second compound 10 µM) was < 31.6 nM. The viability, T/C [1] was 77.6%, the viability, T/C [2] was 24.5% and the viability, T/C [3] was 9.18%. It also gave a viability, T/C [4] of 3.35%, a viability, T/C [5] of 0.15% and a viability, T/C [6] of 0.53%. It also gave a viability, T/C [7] of 62.3%, a viability, T/C [8] of 23.6% and a viability, T/C [9] of 10.5%. For the same compound, the viability, T/C [10] was 4.39%, the viability, T/C [11] was 0.11% and the viability, T/C [12] was 0.5%. It also gave a viability, T/C [13] of 34.7%, a viability, T/C [14] of 21.4% and a viability, T/C [15] of 7.11%. It also gave a viability, T/C [16] of 4.13%, a viability, T/C [17] of 0.18% and a viability, T/C [18] of 0.43%. It also gave a viability, T/C [19] of 4.23%, a viability, T/C [20] of 5.09% and a viability, T/C [21] of 3.51%. It also gave a viability, T/C [22] of 1.63%, a viability, T/C [23] of 0.1% and a viability, T/C [24] of 0.52%. It also gave a viability, T/C [25] of 3.48%, a viability, T/C [26] of 5.09% and a viability, T/C [27] of 3.34%. The viability, T/C [28] was 1.41%, the viability, T/C [29] was 0.08% and the viability, T/C [30] was 0.36%. For the same compound, the viability, T/C [31] was 4.02%, the viability, T/C [32] was 3.99% and the viability, T/C [33] was 2.84%. The viability, T/C [34] was 1.32%, the viability, T/C [35] was 0.18% and the viability, T/C [36] was 0.42%.
